We go through 8 compounds from PubChem BioAssay (NCI).

Some test systems named below: A498 renal; DLD-1 colon; DMS 114 small cell lung; HCT-116 colon; HCT-15 colon; HOP-62 NSCLC; KM20L2 colon; LXFL 529 NSCLC; M19-MEL melanoma; NCI-H460 lung; OVCAR-5 ovarian; SK-MEL-28 melanoma; SK-OV-3 ovarian; SN12C renal; SNB-78 CNS; XF 498 CNS; DMS 273 small cell lung.
What all share (experiment): NCI anticancer screen, dose series, 48 h

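Method: 48-hour compound exposure of cells in 96-well plates, five concentrations, linear interpolation of endpoints. GI50 = concentration required for 50% inhibition of growth. TGI is the concentration that stops growth completely.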 Some results are limits rather than exact numbers.

As to `CCCCC/C=C1\CCC(CN2CCOCC2)C1=O` (stereo unspecified), the TGI in the assay with A498 renal was 33.9 µM; in the assay on DLD-1 colon, 19.2 µM; with DMS 114 small cell lung, 38.5 µM; with HCT-116 colon, 54.9 µM; in the assay on HCT-15 colon it was 21.8 µM; with HOP-62 NSCLC, 54.5 µM. Also, the TGI in the assay on KM20L2 colon was 19 µM; in the assay with LXFL 529 NSCLC, 16.6 µM; with M19-MEL melanoma, above 54.8 µM; in the assay with NCI-H460 lung it was 49.8 µM; with OVCAR-5 ovarian, 35.9 µM; in the assay on SK-MEL-28 melanoma, 21.2 µM. Moreover, the TGI in the assay with SK-OV-3 ovarian is 35.3 µM; in the assay with SN12C renal it was 37.6 µM; in the assay on SNB-78 CNS, 47.4 µM; with XF 498 CNS, 31.8 µM.
In the case of `CC(=O)C1CC2(c3ccccc3)C(=O)c3ccccc3N2O1` (stereo unspecified), the TGI in the assay with A498 renal, in the assay on DLD-1 colon, in the assay on DMS 114 small cell lung, in the assay with DMS 273 small cell lung, in the assay on HCT-116 colon and in the assay with HCT-15 colon was above 100 µM throughout. Besides, the TGI with HOP-62 NSCLC, with KM20L2 colon, in the assay on LXFL 529 NSCLC, in the assay on M19-MEL melanoma, in the assay on SK-MEL-28 melanoma and in the assay with SK-OV-3 ovarian was above 100 µM throughout. The TGI with SN12C renal, in the assay on SNB-78 CNS and in the assay on XF 498 CNS was above 100 µM in each case.
Take `O=C(Cc1ccccc1)NN1C(=O)C(Cl)C1c1cc(Br)cc(Br)c1O` (stereo unspecified): the TGI in the assay on DLD-1 colon is above 100 µM; in the assay on DMS 114 small cell lung, 17.8 µM; with DMS 273 small cell lung it was 65.2 µM; with HCT-116 colon, 16 µM; in the assay with HCT-15 colon, above 100 µM; with HOP-62 NSCLC, 54 µM. Moreover, the TGI in the assay on KM20L2 colon is above 100 µM; with LXFL 529 NSCLC, 50 µM; with M19-MEL melanoma it was 63.2 µM; with NCI-H460 lung, 22.4 µM; with OVCAR-5 ovarian, 38.5 µM; with SK-MEL-28 melanoma it was 35.3 µM. Moreover, the TGI was 62.6 µM in the assay with SK-OV-3 ovarian, above 100 µM in the assay with SN12C renal, 83 µM in the assay with SNB-78 CNS and 79.3 µM with XF 498 CNS.
Regarding `CCCC/C=C1\CCC(CN2CCOCC2)C1=O` (stereo unspecified), the TGI with A498 renal is 27.4 µM; in the assay on DLD-1 colon it was 3.13 µM; in the assay with DMS 114 small cell lung, 15.8 µM; in the assay on DMS 273 small cell lung it was 17.6 µM; in the assay with HCT-116 colon it was 5.55 µM; with HCT-15 colon, 9.3 µM. For the same compound, the TGI with HOP-62 NSCLC amounted to 30.2 µM; in the assay with KM20L2 colon it was 11.4 µM; in the assay with LXFL 529 NSCLC, 2.74 µM; with M19-MEL melanoma, 15.2 µM; with NCI-H460 lung, 38.2 µM; in the assay with OVCAR-5 ovarian, 32.9 µM. The TGI in the assay on SK-MEL-28 melanoma stood at 7.97 µM; with SK-OV-3 ovarian, 31 µM; in the assay with SN12C renal, 10.7 µM; with SNB-78 CNS, 32.3 µM; in the assay with XF 498 CNS, 3.15 µM. Also, the GI50 in the assay with HCT-15 colon was 3.05 µM.
For the compound `CCN(CC)CCNC(=O)c1ccccc1Nc1c(Cl)cccc1Cl`, the TGI with DLD-1 colon was 24.7 µM; with DMS 114 small cell lung, 24.8 µM; in the assay on DMS 273 small cell lung, 30.6 µM; in the assay on HCT-116 colon, 25.7 µM; in the assay on HCT-15 colon, 26 µM; in the assay on HOP-62 NSCLC, 24.2 µM. The TGI with KM20L2 colon amounted to 7.27 µM; in the assay with LXFL 529 NSCLC it was 30.5 µM; with M19-MEL melanoma, 30.2 µM; in the assay on NCI-H460 lung, 16 µM; in the assay on OVCAR-5 ovarian, 20.4 µM; in the assay on SK-MEL-28 melanoma, 33 µM. In addition, the TGI worked out at 30.4 µM with SK-OV-3 ovarian, 27.1 µM in the assay on SN12C renal, 33.1 µM with SNB-78 CNS and 16.5 µM in the assay on XF 498 CNS.
With `COc1ccccc1OCc1nnc(SCC(=O)O)n1-c1ccccc1`, the TGI with A498 renal, with DLD-1 colon, in the assay on DMS 114 small cell lung, in the assay with DMS 273 small cell lung, with HCT-116 colon and in the assay with HCT-15 colon was above 100 µM in each case. The TGI in the assay with HOP-62 NSCLC, in the assay with KM20L2 colon, in the assay with LXFL 529 NSCLC, with NCI-H460 lung, with OVCAR-5 ovarian and in the assay with SK-MEL-28 melanoma was above 100 µM in each case. The TGI with SK-OV-3 ovarian, with SN12C renal, in the assay with SNB-78 CNS and in the assay on XF 498 CNS was above 100 µM each time.
For the compound `CCC1N2CCCCC2[C@@H]2c3[nH]c4ccccc4c3CCN12` (stereo partly specified), the TGI with A498 renal, with DLD-1 colon, in the assay on DMS 114 small cell lung, in the assay with DMS 273 small cell lung, with HCT-116 colon and with HCT-15 colon was above 100 µM throughout. Also, the TGI with HOP-62 NSCLC, with KM20L2 colon, with LXFL 529 NSCLC, with M19-MEL melanoma, with NCI-H460 lung and in the assay on OVCAR-5 ovarian was above 100 µM throughout. Also, the TGI with SK-MEL-28 melanoma, in the assay with SK-OV-3 ovarian, with SN12C renal, in the assay with SNB-78 CNS and with XF 498 CNS was above 100 µM throughout.
Take `CCC(=O)NCC1(c2c[nH]c3ccccc23)SCCS1`: the TGI with A498 renal, in the assay on DLD-1 colon, in the assay on DMS 114 small cell lung, in the assay with DMS 273 small cell lung, in the assay with HCT-116 colon and with HCT-15 colon was above 100 µM each time. For the same compound, the TGI in the assay with HOP-62 NSCLC, with KM20L2 colon, with LXFL 529 NSCLC, in the assay on M19-MEL melanoma, in the assay on NCI-H460 lung and in the assay on OVCAR-5 ovarian was above 100 µM each time. The TGI in the assay with SK-MEL-28 melanoma, in the assay with SK-OV-3 ovarian, in the assay on SN12C renal, with SNB-78 CNS and in the assay on XF 498 CNS was above 100 µM each time.
